Laboratory results from PMC12498222 (RSC Advances, 2025).
Where “and” joins values, the source holds several entries; their conditions need not be identical. Identical values can stand only once. Like-named read-outs stand apart in the source and are kept apart here.

Legend:
MCF-7 [1] = assay: cells; conditions: Homo sapiens, MCF7, 24 h, read-out: In vitro cytotoxicity IC50 (mean ± SD) MCF-7
MCF-7 [2] = conditions: for anti-proliferative activity category: MCF-7, in words; for IC50: human
EGFR TK enzyme = EGFR TK enzyme (Homo sapiens, UniProt P00533); assay: biochemical; conditions: EGFR IC50 (mean ± SD), ATP 1.65 μM, 30 min, room temperature
Sequence of EGFR TK enzyme (P00533 25-1210): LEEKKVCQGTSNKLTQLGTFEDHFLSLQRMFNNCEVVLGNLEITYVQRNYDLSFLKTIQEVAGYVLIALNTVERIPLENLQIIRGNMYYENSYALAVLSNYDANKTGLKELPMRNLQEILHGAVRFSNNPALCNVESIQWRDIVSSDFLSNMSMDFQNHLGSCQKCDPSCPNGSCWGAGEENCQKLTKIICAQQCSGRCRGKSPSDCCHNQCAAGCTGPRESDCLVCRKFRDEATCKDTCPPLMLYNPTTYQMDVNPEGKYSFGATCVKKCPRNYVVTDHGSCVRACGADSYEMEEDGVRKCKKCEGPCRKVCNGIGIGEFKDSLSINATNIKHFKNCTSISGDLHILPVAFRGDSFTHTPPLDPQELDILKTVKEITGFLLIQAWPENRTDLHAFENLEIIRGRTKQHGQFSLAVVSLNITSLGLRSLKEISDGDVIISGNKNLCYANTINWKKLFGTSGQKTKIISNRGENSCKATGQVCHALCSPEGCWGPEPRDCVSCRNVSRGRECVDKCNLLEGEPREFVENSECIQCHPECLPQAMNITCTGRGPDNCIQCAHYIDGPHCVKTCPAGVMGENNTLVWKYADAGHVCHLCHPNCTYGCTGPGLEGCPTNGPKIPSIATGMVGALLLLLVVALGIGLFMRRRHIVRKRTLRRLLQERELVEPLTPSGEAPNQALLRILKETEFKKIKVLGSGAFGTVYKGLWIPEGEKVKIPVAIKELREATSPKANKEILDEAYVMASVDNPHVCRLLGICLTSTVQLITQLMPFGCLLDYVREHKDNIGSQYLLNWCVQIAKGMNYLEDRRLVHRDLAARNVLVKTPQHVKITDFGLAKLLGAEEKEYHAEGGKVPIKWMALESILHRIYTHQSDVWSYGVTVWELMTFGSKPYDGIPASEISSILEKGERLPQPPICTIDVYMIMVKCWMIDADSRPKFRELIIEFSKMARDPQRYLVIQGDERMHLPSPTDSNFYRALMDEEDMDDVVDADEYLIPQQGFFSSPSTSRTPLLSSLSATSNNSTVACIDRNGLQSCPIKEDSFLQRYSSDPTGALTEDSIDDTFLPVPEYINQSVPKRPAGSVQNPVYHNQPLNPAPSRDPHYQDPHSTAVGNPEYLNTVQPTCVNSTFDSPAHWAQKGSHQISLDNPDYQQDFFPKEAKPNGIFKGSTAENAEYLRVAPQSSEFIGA

SMILES | IC50 (MCF-7 [1]) | anti-proliferative activity category (MCF-7 [2]) | IC50 (EGFR TK enzyme) | IC50 (MCF-7 [2])
Nc1cc(N2C(=O)c3ccccc3C2=O)nc(SCC(=O)NN=Cc2cccc([N+](=O)[O-])c2)n1 [6a, 2-((4-Amino-6-(1,3-dioxoisoindolin-2-yl)pyrimidin-2-yl)thio)-N′-(3-nitrobenzylidene)acetohydrazide] | 62 ± 3.3 µM | lowest anti-proliferative activity | – | –
CCCCNC(c1ccccc1)c1c(N)[nH]c(=O)[nH]c1=O (stereo not shown) [10c, 6-Amino-5-((butylamino)(phenyl)methyl)pyrimidine-2,4(1H,3H)-dione] | 7.6 ± 0.5 µM | high anti-proliferative activity | 0.99 ± 0.03 µM | –
O=C1CCC(N2C(=O)c3ccccc3C2=O)C(=O)N1 (stereo not shown) [Thalidomide, reference compound] | 13.4 ± 0.5 µM | – | – | –
COc1ccc(C=NNC(=O)CSc2nc(N)cc(N3C(=O)c4ccccc4C3=O)n2)cc1OC [6g, 2-((4-Amino-6-(1,3-dioxoisoindolin-2-yl)pyrimidin-2-yl)thio)-N′-(3,4-dimethoxy-benzylidene)acetohydrazide] | 19.6 ± 1.5 µM | moderate activity | – | –
CCNC(c1ccccc1)c1c(N)[nH]c(=O)[nH]c1=O (stereo not shown) [10b, 6-Amino-5-((ethylamino)(phenyl)methyl)pyrimidine-2,4(1H,3H)-dione] | 31.8 ± 2 µM | moderate activity | 0.65 ± 0.02 µM | 37.7 ± 2.4 µM
Nc1cc(N2C(=O)c3ccccc3C2=O)nc(SCC(=O)NN=Cc2ccc([N+](=O)[O-])cc2)n1 [6b, 2-((4-Amino-6-(1,3-dioxoisoindolin-2-yl)pyrimidin-2-yl)thio)-N′-(4-nitrobenzylidene)acetohydrazide] | 48.4 ± 2.8 µM | moderate activity | – | –
Nc1cc(N2C(=O)c3ccccc3C2=O)nc(SCC(=O)NN=Cc2ccc(Cl)cc2)n1 [6c, 2-((4-Amino-6-(1,3-dioxoisoindolin-2-yl)pyrimidin-2-yl)thio)-N′-(4-chlorobenzylidene)acetohydrazide] | 37.7 ± 3.6 µM | moderate activity | 0.9 µM and 0.88 µM | 31.8 ± 2 µM
Nc1cc(N2C(=O)c3ccccc3C2=O)nc(SCC(=O)NN=Cc2ccc(O)cc2)n1 [6e, 2-((4-Amino-6-(1,3-dioxoisoindolin-2-yl)pyrimidin-2-yl)thio)-N′-(4-hydroxybenzylidene)acetohydrazide] | 75.4 ± 3.7 µM | lowest anti-proliferative activity | – | –
CN(C)C(c1ccccc1)c1c(N)[nH]c(=O)[nH]c1=O (stereo not shown) [10d, 6-Amino-5-((dimethylamino)(phenyl)methyl)pyrimidine-2,4(1H,3H)-dione] | 8.6 ± 0.7 µM | high anti-proliferative activity | – | 14.2 ± 1.2 µM
CNC(c1ccccc1)c1c(N)[nH]c(=O)[nH]c1=O (stereo not shown) [10a, 6-Amino-5-((methylamino)(phenyl)methyl)pyrimidine-2,4(1H,3H)-dione] | 8.6 ± 0.7 µM | – | 4.6 ± 0.11 µM | –
